Test results as given in US20110173718A1, “HERBICIDE TOLERANT PLANTS” (SYNGENTA CROP PROTECTION, INC., priority 2008, published 2011).
Values joined by “and” are separate entries in the source; they are usually repeats but may differ in a detail not shown here. Equal entries are not always repeated.

Tests used:
Assay type in all cases: in vivo
[1] = tested on: Arabidopsis HST transgenic tobacco plants; assay: Glasshouse spray test, Arabidopsis HST transgenic tobacco; settings: D2 line (Arabidopsis HST, segregating T1), individual plants
weeds = assay: Glasshouse weed control by HST/HPPD (mesotrione) mixtures, pre-emergence; settings: for colby: Colby synergy score; for % Damage at 14 DAA, 1 g ai ha^−1 mesotrione / % Damage at 14 DAA, no-mesotrione: N = 3
[2] = tested on: Chlamydomonas HST T0 tobacco lines; assay: Glasshouse spray test, Chlamydomonas HST transgenic tobacco; settings: 100 g, individual T0 lines
From the text: In just the same way the Chlamydomonas HST gene sequence (AM285678) is codon-optimised for tobacco and cloned behind the double Cauliflower mosaic virus 35S promoter and Tobacco mosaic virus enhancer sequences and in front of a nos gene terminator, cloned into a binary vector and transformed into tobacco to produce a population of T0 plants.

[3] = ALOMY, 16 g/ha + mesotrione 1 g ai/ha
[4] = ALOMY, 31 g/ha + mesotrione 1 g ai/ha
[5] = ALOMY, 63 g/ha + mesotrione 1 g ai/ha
[6] = ALOMY, 125 g/ha + mesotrione 1 g ai/ha
[7] = ALOMY, 250 g/ha + mesotrione 1 g ai/ha
[8] = ALOMY, 500 g/ha + mesotrione 1 g ai/ha
[9] = AMARE, 16 g/ha + mesotrione 1 g ai/ha
[10] = AMARE, 31 g/ha + mesotrione 1 g ai/ha
[11] = AMARE, 63 g/ha + mesotrione 1 g ai/ha
[12] = AMARE, 125 g/ha + mesotrione 1 g ai/ha
[13] = AMARE, 250 g/ha + mesotrione 1 g ai/ha
[14] = AMARE, 500 g/ha + mesotrione 1 g ai/ha
[15] = ECHCG, 16 g/ha + mesotrione 1 g ai/ha
[16] = ECHCG, 31 g/ha + mesotrione 1 g ai/ha
[17] = ECHCG, 63 g/ha + mesotrione 1 g ai/ha
[18] = ECHCG, 125 g/ha + mesotrione 1 g ai/ha
[19] = ECHCG, 250 g/ha + mesotrione 1 g ai/ha
[20] = ECHCG, 500 g/ha + mesotrione 1 g ai/ha
[21] = IPOHE, 16 g/ha + mesotrione 1 g ai/ha
[22] = IPOHE, 31 g/ha + mesotrione 1 g ai/ha
[23] = IPOHE, 63 g/ha + mesotrione 1 g ai/ha
[24] = IPOHE, 125 g/ha + mesotrione 1 g ai/ha
[25] = IPOHE, 250 g/ha + mesotrione 1 g ai/ha
[26] = IPOHE, 500 g/ha + mesotrione 1 g ai/ha
[27] = SETFA, 16 g/ha + mesotrione 1 g ai/ha
[28] = SETFA, 31 g/ha + mesotrione 1 g ai/ha
[29] = SETFA, 63 g/ha + mesotrione 1 g ai/ha
[30] = SETFA, 125 g/ha + mesotrione 1 g ai/ha
[31] = SETFA, 250 g/ha + mesotrione 1 g ai/ha
[32] = SETFA, 500 g/ha + mesotrione 1 g ai/ha
[33] = SOLNI, 16 g/ha + mesotrione 1 g ai/ha
[34] = SOLNI, 31 g/ha + mesotrione 1 g ai/ha
[35] = SOLNI, 63 g/ha + mesotrione 1 g ai/ha
[36] = SOLNI, 125 g/ha + mesotrione 1 g ai/ha
[37] = SOLNI, 250 g/ha + mesotrione 1 g ai/ha
[38] = SOLNI, 500 g/ha + mesotrione 1 g ai/ha

CC(C)C(=O)Oc1c(-c2c(F)ccc(Br)c2Cl)c(=O)n(CC(F)F)c2nccnc12 [Compound 2.30]
% damage at 7 DAT ([1]; 150 gai/ha): 65% and 40% (2×) and 50% and 55% and 60% (2×) and 90%
% damage at 7 DAT ([1]; 300 gai/ha): 60% (2×) and 80% and 95% and 98% and 70% and 90% (2×)
% damage at 7 DAT ([1]; 450 gai/ha): 35% (2×) and 20% and 55% (2×) and 60% and 65% and 70%
colby (weeds; [3]): 0%
% Damage at 14 DAA, 1 g ai ha^−1 mesotrione (weeds; [3]): 0%
% Damage at 14 DAA, no-mesotrione (weeds; ALOMY, 16 g/ha): 0%
colby (weeds; [4]): 0%
% Damage at 14 DAA, 1 g ai ha^−1 mesotrione (weeds; [4]): 0%
% Damage at 14 DAA, no-mesotrione (weeds; ALOMY, 31 g/ha): 0%
colby (weeds; [5]): 0%
% Damage at 14 DAA, 1 g ai ha^−1 mesotrione (weeds; [5]): 0%
% Damage at 14 DAA, no-mesotrione (weeds; ALOMY, 63 g/ha): 0%
colby (weeds; [6]): 0%
% Damage at 14 DAA, 1 g ai ha^−1 mesotrione (weeds; [6]): 0%
% Damage at 14 DAA, no-mesotrione (weeds; ALOMY, 125 g/ha): 0%
colby (weeds; [7]): −2%
% Damage at 14 DAA, 1 g ai ha^−1 mesotrione (weeds; [7]): 0%
% Damage at 14 DAA, no-mesotrione (weeds; ALOMY, 250 g/ha): 2%
colby (weeds; [8]): 10%
% Damage at 14 DAA, 1 g ai ha^−1 mesotrione (weeds; [8]): 20%
% Damage at 14 DAA, no-mesotrione (weeds; ALOMY, 500 g/ha): 10%
colby (weeds; [9]): −2%
% Damage at 14 DAA, 1 g ai ha^−1 mesotrione (weeds; [9]): 0%
% Damage at 14 DAA, no-mesotrione (weeds; AMARE, 16 g/ha): 0%
colby (weeds; [10]): −2%
% Damage at 14 DAA, 1 g ai ha^−1 mesotrione (weeds; [10]): 0%
% Damage at 14 DAA, no-mesotrione (weeds; AMARE, 31 g/ha): 0%
colby (weeds; [11]): 8%
% Damage at 14 DAA, 1 g ai ha^−1 mesotrione (weeds; [11]): 10%
% Damage at 14 DAA, no-mesotrione (weeds; AMARE, 63 g/ha): 0%
colby (weeds; [12]): 29%
% Damage at 14 DAA, 1 g ai ha^−1 mesotrione (weeds; [12]): 40%
% Damage at 14 DAA, no-mesotrione (weeds; AMARE, 125 g/ha): 10%
colby (weeds; [13]): 9%
% Damage at 14 DAA, 1 g ai ha^−1 mesotrione (weeds; [13]): 47%
% Damage at 14 DAA, no-mesotrione (weeds; AMARE, 250 g/ha): 37%
colby (weeds; [14]): 16%
% Damage at 14 DAA, 1 g ai ha^−1 mesotrione (weeds; [14]): 90%
% Damage at 14 DAA, no-mesotrione (weeds; AMARE, 500 g/ha): 73%
colby (weeds; [15]): 0%
% Damage at 14 DAA, 1 g ai ha^−1 mesotrione (weeds; [15]): 0%
% Damage at 14 DAA, no-mesotrione (weeds; ECHCG, 16 g/ha): 0%
colby (weeds; [16]): 0%
% Damage at 14 DAA, 1 g ai ha^−1 mesotrione (weeds; [16]): 0%
% Damage at 14 DAA, no-mesotrione (weeds; ECHCG, 31 g/ha): 0%
colby (weeds; [17]): 0%
% Damage at 14 DAA, 1 g ai ha^−1 mesotrione (weeds; [17]): 0%
% Damage at 14 DAA, no-mesotrione (weeds; ECHCG, 63 g/ha): 0%
colby (weeds; [18]): −2%
% Damage at 14 DAA, 1 g ai ha^−1 mesotrione (weeds; [18]): 0%
% Damage at 14 DAA, no-mesotrione (weeds; ECHCG, 125 g/ha): 2%
colby (weeds; [19]): 0%
% Damage at 14 DAA, 1 g ai ha^−1 mesotrione (weeds; [19]): 5%
% Damage at 14 DAA, no-mesotrione (weeds; ECHCG, 250 g/ha): 5%
colby (weeds; [20]): 8%
% Damage at 14 DAA, 1 g ai ha^−1 mesotrione (weeds; [20]): 27%
% Damage at 14 DAA, no-mesotrione (weeds; ECHCG, 500 g/ha): 18%
colby (weeds; [21]): 0%
% Damage at 14 DAA, 1 g ai ha^−1 mesotrione (weeds; [21]): 0%
% Damage at 14 DAA, no-mesotrione (weeds; IPOHE, 16 g/ha): 0%
colby (weeds; [22]): 0%
% Damage at 14 DAA, 1 g ai ha^−1 mesotrione (weeds; [22]): 0%
% Damage at 14 DAA, no-mesotrione (weeds; IPOHE, 31 g/ha): 0%
colby (weeds; [23]): 0%
% Damage at 14 DAA, 1 g ai ha^−1 mesotrione (weeds; [23]): 0%
% Damage at 14 DAA, no-mesotrione (weeds; IPOHE, 63 g/ha): 0%
colby (weeds; [24]): 0%
% Damage at 14 DAA, 1 g ai ha^−1 mesotrione (weeds; [24]): 0%
% Damage at 14 DAA, no-mesotrione (weeds; IPOHE, 125 g/ha): 0%
colby (weeds; [25]): −2%
% Damage at 14 DAA, 1 g ai ha^−1 mesotrione (weeds; [25]): 0%
% Damage at 14 DAA, no-mesotrione (weeds; IPOHE, 250 g/ha): 2%
colby (weeds; [26]): 13%
% Damage at 14 DAA, 1 g ai ha^−1 mesotrione (weeds; [26]): 17%
% Damage at 14 DAA, no-mesotrione (weeds; IPOHE, 500 g/ha): 3%
colby (weeds; [27]): 0%
% Damage at 14 DAA, 1 g ai ha^−1 mesotrione (weeds; [27]): 0%
% Damage at 14 DAA, no-mesotrione (weeds; SETFA, 16 g/ha): 0%
colby (weeds; [28]): 0%
% Damage at 14 DAA, 1 g ai ha^−1 mesotrione (weeds; [28]): 0%
% Damage at 14 DAA, no-mesotrione (weeds; SETFA, 31 g/ha): 0%
colby (weeds; [29]): 0%
% Damage at 14 DAA, 1 g ai ha^−1 mesotrione (weeds; [29]): 0%
% Damage at 14 DAA, no-mesotrione (weeds; SETFA, 63 g/ha): 0%
colby (weeds; [30]): −2%
% Damage at 14 DAA, 1 g ai ha^−1 mesotrione (weeds; [30]): 0%
% Damage at 14 DAA, no-mesotrione (weeds; SETFA, 125 g/ha): 2%
colby (weeds; [31]): 3%
% Damage at 14 DAA, 1 g ai ha^−1 mesotrione (weeds; [31]): 7%
% Damage at 14 DAA, no-mesotrione (weeds; SETFA, 250 g/ha): 3%
colby (weeds; [32]): 10%
% Damage at 14 DAA, 1 g ai ha^−1 mesotrione (weeds; [32]): 32%
% Damage at 14 DAA, no-mesotrione (weeds; SETFA, 500 g/ha): 22%
colby (weeds; [33]): −17%
% Damage at 14 DAA, 1 g ai ha^−1 mesotrione (weeds; [33]): 0%
% Damage at 14 DAA, no-mesotrione (weeds; SOLNI, 16 g/ha): 0%
colby (weeds; [34]): −10%
% Damage at 14 DAA, 1 g ai ha^−1 mesotrione (weeds; [34]): 7%
% Damage at 14 DAA, no-mesotrione (weeds; SOLNI, 31 g/ha): 0%
colby (weeds; [35]): −13%
% Damage at 14 DAA, 1 g ai ha^−1 mesotrione (weeds; [35]): 3%
% Damage at 14 DAA, no-mesotrione (weeds; SOLNI, 63 g/ha): 0%
colby (weeds; [36]): −11%
% Damage at 14 DAA, 1 g ai ha^−1 mesotrione (weeds; [36]): 8%
% Damage at 14 DAA, no-mesotrione (weeds; SOLNI, 125 g/ha): 2%
colby (weeds; [37]): 11%
% Damage at 14 DAA, 1 g ai ha^−1 mesotrione (weeds; [37]): 30%
% Damage at 14 DAA, no-mesotrione (weeds; SOLNI, 250 g/ha): 3%
colby (weeds; [38]): 21%
% Damage at 14 DAA, 1 g ai ha^−1 mesotrione (weeds; [38]): 75%
% Damage at 14 DAA, no-mesotrione (weeds; SOLNI, 500 g/ha): 45%
blch (% bleaching at the meristem relative to control plants) ([2]; 17 DAT): 0% (14×) and 15% (3×) and 20% and 65% and 10% (2×) and 90% and 75%
ht (% height reduction relative to control plants) ([2]; 17 DAT): 15% (2×) and 10% (2×) and 55% (3×) and 25% and 30% (2×) and 0% (2×) and 5% and 8% and 20% (3×) and 40% (2×) and 50% and 35% and 90% and 85%
blch (% bleaching at the meristem relative to control plants) ([2]; 26 DAT): 0% (19×) and 25% and 85% (2×) and 90% (2×)
ht (% height reduction relative to control plants) ([2]; 26 DAT): 30% (5×) and 20% (6×) and 70% and 10% and 80% and 35% (2×) and 90% (2×) and 50% and 25% and 75% (2×) and 95% and 60%
